Measured values published in US20170128518A1, “METHODS AND MATERIALS FOR IDENTIFYING AND TREATING MAMMALS RESISTANT TO PROTEASOME INHIBITOR TREATMENTS” (Mayo Foundation for Medical Education and Research, priority 2014, published 2017).
“Also recorded” adds a separate entry of the source. Values belong to the compound of their own block, whether it stands above or below them. Peptide text beside a SMILES is read from it. * marks the point of attachment. Cbz = O=C(OCc1ccccc1)*; CH2F = FC*

Columns and labels:
[1] = biological target: T1, 20S proteasome b5 subunit (Homo sapiens, UniProt P28074); experiment: Proteasomal activity assay, chymotrypsin-like (LLVY-AMC), WM cells; assay type: biochemical; conditions: 10 nmol/l; WT and BR WM cells
T1 construct: Cells were lysed at 4×10^6 cells/ml in proteasomal activity assay buffer; endogenous in cells; host or cells: BCWM.1, MWCL-1, RPCI-WM1 and their BR subclones (lysates)
T1 sequence (P28074 60-263): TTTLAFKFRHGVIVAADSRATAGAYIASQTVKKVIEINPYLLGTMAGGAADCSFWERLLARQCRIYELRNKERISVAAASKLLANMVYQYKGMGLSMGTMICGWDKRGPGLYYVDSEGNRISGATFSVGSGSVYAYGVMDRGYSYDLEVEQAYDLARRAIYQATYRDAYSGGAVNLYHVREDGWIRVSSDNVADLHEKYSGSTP
Method: FIGS. 10A and 10B are a series of graphs plotting the effect of b-AP15 treatment on 20S proteasome, b5-subunit (chymotrypsin-like) catalytic activity in WT and BR WM cells.
Cells were lysed at 4×10^6 cells/ml in proteasomal activity assay buffer [assay buffer; 25 mmol/1 HEPES buffer, pH7.5 containing 0.5 mmol/1 EDTA, 0.05% Nonidet P-40, 0.01% sodium dodecyl sulfate (SDS)] and immediately used in the assay. Enzyme reactions were performed in 96-well plates with 100 μl of final volume containing […] fluorogenic peptide substrates. The substrates used were LLVY-AMC for chymotrypsin like activity, LLE-AMC for caspase-like activity and LRR-AMC for trypsin-like activity. Reactions were incubated at 37° C. for 1 hour and fluorescence was measured at 360/460 using a BioTek synergy HT plate reader (BioTek, Winooski, Vt.).

[2] = tested on: treatment naïve MM patients; conditions: bortezomib-based therapies; cited from earlier work
BCWM.1 cell line = experiment: MTS viability assay, BCWM.1; assay type: cell-based, human
Method: (§1) FIGS. 4A-4D show the characterization of BR WM models, established by subjecting WM cancer cell lines (n=3) chronic drug exposure. […] FIG. 4C is a graph plotting relative fluorescence units in an assay to examine PSMB5 enzyme function by flow cytometry.
(§2) Twenty thousand cells/200 μl in quadruplicates were incubated with serially diluted b-AP15 (1-1000 nmol/l) in 96-well plates at 37° C. for 72 hours. MTS (3-(4,5-dimethylthiazol-2-yl)-5-(3-carboxymethoxyphenyl)-2-(4-sulfophenyl)-2H-tetrazolium) reagent (Molecular Probes, Eugene, Oreg.) was added at 40 μl/well and the plates were further incubated at 37° C. for 3 hours and the developed color was read at 490 nm using a BioTek synergy HT plate reader against blanks with no cells.

[3] = tested on: BR human MM and WM cell lines; experiment: Growth insensitivity of BR cell lines vs WT counterparts; assay type: cell-based; conditions: BR cell lines compared to respective WT counterparts
Excerpt: (§3) To investigate the mechanism of induction of bortezomib resistance, preclinical models of acquired bortezomib resistance (BR) were developed using human MM and WM cell lines.

RPCI-WM1 = experiment: MTS viability assay, RPCI-WM1; assay type: cell-based, human; conditions: Homo sapiens, MTS assay
Method: as §2

β5/PSMB5 = β5/PSMB5 (Homo sapiens, UniProt P28074); experiment: 26S proteasome activity, Suc-LLVY-AMC cleavage, WT and BR plasma cell cancer cells; assay type: biochemical; conditions: in the presence of bortezomib
Method: FIGS. 3A-3C are a series of graphs showing that bortezomib resistance is associated with increased proteasomal enzymatic activity.
Studies were performed to investigate whether an increase in β1i and β5 proteins corresponded with increased protease activity. WT and BR cancer cells were incubated with β1i specific (Ac-PAL-AMC substrate) and β5 specific (Suc-LLVY-AMC substrate) fluorogenic peptides (condition details in FIG. 3 description above). β5 chymotryptic activity (primary target of bortezomib) was assessed first and found in BR cells.

MWCL-1 cells = experiment: MTS viability assay, MWCL-1; assay type: cell-based, human; conditions: Homo sapiens, MTS assay
Method: as §2

OPM2 cell line (WT) = experiment: MTS assay, OPM2 WT; assay type: cell-based; conditions: Homo sapiens, OPM-2
Excerpt: (§4) FIGS. 1A-1C show the characterization of bortezomib-resistance (BR) models, established by subjecting plasma cell cancer cell lines (n=6) chronic drug exposure. FIG. 1A is a graph plotting the results of an MTS assay for an OPM2 cell line (representative model).
as §3

MWCL-1/BR = experiment: MTS viability assay, MWCL-1/BR; assay type: cell-based, human; conditions: Homo sapiens; MTS assay, MWCL-1/BR
Method: as §2

BCWM.1/BR = experiment: MTS viability assay, BCWM.1/BR; assay type: cell-based, human
Method: as §1, §2

MCL patients = conditions: bortezomib-based therapies; cited from earlier work
RPCI-WM1/BR = experiment: MTS viability assay, RPCI-WM1/BR; assay type: cell-based, human; conditions: Homo sapiens, MTS assay
Method: as §2

OPM2 BR derivative = experiment: MTS assay, OPM2 BR derivative; assay type: cell-based; conditions: Homo sapiens, OPM-2
Excerpt: as §4, §3

[4] = tested on: bortezomib or carfilzomib-resistant MM and WM cell lines; experiment: VLX1570-sensitivity screen (Celltiter Glo viability assay); assay type: cell-based, human; conditions: bortezomib/carfilzomib-resistant tumor cells
Excerpt: FIG. 5 is a graph plotting sensitivity of bortezomib or carfilzomib-resistant tumor cells to drugs with a mechanism directed at targets upstream of the 20S proteasome. An inhibitor of the deubiquitinase (DUB) enzymes located in the 19S cap of the proteasome that are upstream of β5 and β1i, was used.

WT and BR WM cells = experiment: Mitochondrial outer membrane permeability (TMRM), WM cell lines; assay type: cell-based, human; conditions: pre-treatment with pan-caspase inhibitor
Method: Cells were treated with different agents for 48 hours and assessed for MOMP using tetramethylrhodamine methyl ester [TMRM] (Life Technologies). TMRM was directly added to the cell cultures at 100 nmol/1 concentrations and incubated at 37° C. in the dark for 15 minutes. At the end of the incubation, cells were washed twice with cold PBS containing 2% FBS and analyzed. The cells were washed for fluorescence (FL2) and analyzed by BD Accuri, the C6 flow cytometer and its software. Data from at least 20,000 events per sample were collected and analyzed. TMRM-negative (%) cells were calculated to determine % MOMP.

chymotrypsin-like activity (LLVY) of the b5 subunit [1]: significantly diminished
SMILES: CC(C)C[C@H](NC(=O)[C@H](CCc1ccccc1)NC(=O)CN1CCOCC1)C(=O)N[C@@H](Cc1ccccc1)C(=O)N[C@@H](CC(C)C)C(=O)[C@@]1(C)CO1 [carfilzomib]

chymotrypsin-like activity (LLVY) of the b5 subunit [1]: significantly diminished
SMILES: CC(C)C[C@H](NC(=O)[C@H](Cc1ccccc1)NC(=O)c1cnccn1)B(O)O [bortezomib]
response rate [2]: about 100%
IC50 (BCWM.1 cell line; Homo sapiens, BCWM1, MTS assay): 18 nM
IC50 (BCWM.1 cell line; MTS assay): 11.4 nM
increase in growth insensitivity, BR vs WT [3]: > 100 fold
IC50 (RPCI-WM1): 27 nM
chymotryptic β5 activity (β5/PSMB5): decreased; also recorded: inhibited the chymotryptic activity; also recorded: nearly abrogated
IC50 (MWCL-1 cells): 16.6 nM
IC50 (OPM2 cell line (WT)): 6.14 nM
IC50 (MWCL-1/BR): 65.2 nM
IC50 (BCWM.1/BR; Homo sapiens, BCWM1, MTS assay): > 1000 nM
IC50 (BCWM.1/BR; MTS assay): 720 nM
response rate (MCL patients): about 75%
IC50 (RPCI-WM1/BR): 125 nM
IC50 (OPM2 BR derivative): > 50 nM

SMILES: C=CC(=O)N1CC/C(=C\c2ccc(F)c([N+](=O)[O-])c2)C(=O)/C(=C/c2ccc(F)c([N+](=O)[O-])c2)C1 [VLX1570]
cytotoxicity [4]: comparable cytotoxicity

SMILES: COC(=O)C[C@H](NC(=O)[C@H](C)NC(=O)[C@@H](NC(=O)OCc1ccccc1)C(C)C)C(=O)CF [z.VAD.fmk] (Cbz-Val-Ala-Asp(OMe)-CH2F)
MOMP in b-AP15 co-treated WM cells (WT and BR WM cells): significantly reduced MOMP
